One block for each compound: values may come before it. Calls of active or inactive are those of the source. The rule behind the calls is not given here.
Legend:
[1] = Chemical stability of compound at pH 7.4 in PBS buffer at 1 mg incubated for 48 hrs by HPLC analysis; assay type: physicochemical; details: pH 7.4, 48 h
[2] = Chemical stability of compound at pH 7.4 in bovine serum at 1 mg incubated for 48 hrs by HPLC analysis; assay type: ADME, cell-free; details: cattle, pH 7.4, 48 h
[3] = Stability of compound in phosphate buffer at pH 7.4 assessed as Escherichia coli beta-glucuronidase mediated compound cleavage at 1.2 mg measured after 2 hrs by HPLC analysis; assay type: ADME; details: pH 7.4, 2 h
HeLa [4] = experiment: Antiproliferative activity against human HeLa cells assessed as inhibition of cell growth incubated for 48 hrs by MTT assay; assay type: functional, cell-based
MDA-MB-231 [5] = experiment: Antiproliferative activity against human MDA-MB-231 cells assessed as inhibition of cell growth incubated for 48 hrs by MTT assay; assay type: functional, cell-based; details: MDA-MB-231, 48 h
MCF7 [6] = experiment: Antiproliferative activity against human MCF7 cells assessed as inhibition of cell growth incubated for 48 hrs by MTT assay; assay type: functional, cell-based; details: MCF7, 48 h
[7] = Acute toxicity in BALB/c mouse assessed as lethal dose administered intravenously as single dose and measured after 14 days; details: in vivo, route iv, time 14 day
[8] = Acute toxicity in BALB/c mouse assessed as animal survival at 12.5 mg/kg, iv administered as single dose measured after 14 days; assay type: organism-based; details: in vivo, time 14 day
[9] = Acute toxicity in BALB/c mouse assessed as animal survival at 25 mg/kg, iv administered as single dose measured after 14 days; assay type: organism-based; details: in vivo, time 14 day
[10] = Acute toxicity in BALB/c mouse assessed as animal survival at 50 mg/kg, iv administered as single dose measured after 14 days; assay type: organism-based; details: in vivo, time 14 day
[11] = Acute toxicity in BALB/c mouse assessed as animal survival at 70 mg/kg, iv administered as single dose measured after 14 days; assay type: organism-based; details: in vivo, time 14 day
[12] = Acute toxicity in BALB/c mouse assessed as animal survival at 100 mg/kg, iv administered as single dose measured after 14 days; assay type: organism-based; details: in vivo, time 14 day
[13] = Toxicity in nude mouse xenografted with human MDA-MB-231 cells assessed as pathological changes in kidney at 3.75 mg/kg, iv administered every 2 days for 14 days by H and E staining based assay; assay type: organism-based; details: in vivo, 336 h, time 14 day
[14] = Toxicity in nude mouse xenografted with human MDA-MB-231 cells assessed as pathological changes in liver at 3.75 mg/kg, iv administered every 2 days for 14 days by H and E staining based assay; assay type: organism-based; details: in vivo, 336 h, time 14 day
[15] = Toxicity in nude mouse xenografted with human MDA-MB-231 cells assessed as pathological changes in spleen at 3.75 mg/kg, iv administered every 2 days for 14 days by H and E staining based assay; assay type: organism-based; details: in vivo, 336 h, time 14 day
MDA-MB-231 [16] = experiment: Antitumor activity against mouse xenografted with human MDA-MB-231 cells assessed as increase in tumor necrosis area at 3.75 mg/kg, iv administered every 2 days for 14 days by H and E staining based assay; assay type: functional, organism-based; details: time 14.0 day
[17] = Toxicity in nude mouse assessed as effect on total protein level in serum at 3.75 mg/kg, iv administered qd for 3 days (reference value: 47.3 g/L); assay type: organism-based; details: in vivo, 72 h, time 3 day
[18] = Toxicity in nude mouse assessed as effect on albumin level in serum at 3.75 mg/kg, iv administered qd for 3 days (reference value: 31.2 g/L); assay type: organism-based; details: in vivo, 72 h, time 3 day
[19] = Toxicity in nude mouse assessed as effect on globulin level in serum at 3.75 mg/kg, iv administered qd for 3 days (reference value: 16.1 g/L); assay type: organism-based; details: in vivo, 72 h, time 3 day
[20] = Toxicity in nude mouse assessed as effect on alanine aminotransferase level in serum at 3.75 mg/kg, iv administered qd for 3 days (reference value: 308 U/L); assay type: organism-based; details: in vivo, 72 h, time 3 day
[21] = Toxicity in nude mouse assessed as effect on aspartate aminotransferase level in serum at 3.75 mg/kg, iv administered qd for 3 days (reference value: 424 U/L); assay type: organism-based; details: in vivo, 72 h, time 3 day
[22] = Toxicity in nude mouse assessed as effect on total bilirubin level in serum at 3.75 mg/kg, iv administered qd for 3 days (reference value: 3.3 micromol/L); assay type: organism-based; details: in vivo, 72 h, time 3 day
[23] = Toxicity in nude mouse assessed as effect on alkaline phosphatase level in serum at 3.75 mg/kg, iv administered qd for 3 days (reference value: 66 U/L); assay type: organism-based; details: in vivo, 72 h, time 3 day
[24] = Toxicity in nude mouse assessed as effect on gamma-glutamyl transpeptidase level in serum at 3.75 mg/kg, iv administered qd for 3 days (Rvb < 2 U/L); assay type: organism-based; details: in vivo, 72 h, time 3 day
[25] = Toxicity in nude mouse assessed as effect on white blood cell count at 3.75 mg/kg, iv administered qd for 3 days (reference value: 0.02 10^9/L); assay type: organism-based; details: in vivo, 72 h, time 3 day
[26] = Toxicity in nude mouse assessed as effect on platelet count at 3.75 mg/kg, iv administered qd for 3 days (reference value: 21 10^9/L); assay type: organism-based; details: in vivo, 72 h, time 3 day
[27] = Toxicity in nude mouse assessed as effect on mean corpuscular hemoglobin level at 3.75 mg/kg, iv administered qd for 3 days (reference value: 22.3 pg); assay type: organism-based; details: in vivo, 72 h, time 3 day
[28] = Toxicity in nude mouse assessed as effect on mean corpuscular hemoglobin concentration at 3.75 mg/kg, iv administered qd for 3 days (reference value: 473 g/L); assay type: organism-based; details: in vivo, 72 h, time 3 day
[29] = Toxicity in nude mouse assessed as effect on neutrophil level at 3.75 mg/kg, iv administered qd for 3 days (reference value: 7.40 %); assay type: organism-based; details: in vivo, 72 h, time 3 day
[30] = Toxicity in nude mouse assessed as effect on eosinophil level at 3.75 mg/kg, iv administered qd for 3 days (reference value: 6 %); assay type: organism-based; details: in vivo, 72 h, time 3 day
[31] = Toxicity in nude mouse assessed as effect on basophil level at 3.75 mg/kg, iv administered qd for 3 days (reference value: 11.70 %); assay type: organism-based; details: in vivo, 72 h, time 3 day
[32] = Toxicity in nude mouse assessed as effect on lymphocyte level at 3.75 mg/kg, iv administered qd for 3 days (reference value: 60.90 %); assay type: organism-based; details: in vivo, 72 h, time 3 day
[33] = Toxicity in nude mouse assessed as effect on monocytes level at 3.75 mg/kg, iv administered qd for 3 days (reference value: 37.10 %); assay type: organism-based; details: in vivo, 72 h, time 3 day
[34] = Toxicity in nude mouse assessed as effect on platelet distribution width at 3.75 mg/kg, iv administered qd for 3 days (reference value: 20.2); assay type: organism-based; details: in vivo, 72 h, time 3 day
[35] = Cardiotoxicity in nude mouse assessed as abnormal spikes at 5 mg/kg, iv administered once daily for 3 days by ECG analysis; assay type: toxicity, organism-based; details: in vivo, 72 h, time 3 day
[36] = Cardiotoxicity in nude mouse assessed as prolonged QT intervals at 5 mg/kg, iv administered once daily for 3 days by ECG analysis; assay type: toxicity, organism-based; details: in vivo, 72 h, time 3 day
[37] = Toxicity in nude mouse assessed as animal death at 5 mg/kg, iv administered 3 consecutive dosages; assay type: organism-based; details: in vivo
SK-OV-3 [38] = experiment: cells; details: Homo sapiens, SK-OV-3, 48 h
Description: Antiproliferative activity against human SK-OV-3 cells assessed as inhibition of cell growth incubated for 48 hrs by MTT assay

[39] = Stability of compound in phosphate buffer at pH 7.4 assessed as Escherichia coli beta-glucuronidase mediated compound cleavage at 1.2 mg measured after 10 mins by HPLC analysis; assay type: ADME; details: pH 7.4, 10 min
HeLa [40] = experiment: Antiproliferative activity against human HeLa cells assessed as inhibition of cell growth incubated for 48 hrs in absence of beta-glucuronidase by MTT assay; assay type: functional, cell-based
MDA-MB-231 [41] = experiment: Antiproliferative activity against human MDA-MB-231 cells assessed as inhibition of cell growth incubated for 48 hrs in absence of beta-glucuronidase by MTT assay; assay type: functional, cell-based; details: MDA-MB-231, 48 h
SK-OV-3 [42] = experiment: Antiproliferative activity against human SK-OV-3 cells assessed as inhibition of cell growth incubated for 48 hrs in absence of beta-glucuronidase by MTT assay; assay type: functional, cell-based; details: SK-OV-3, 48 h
MCF7 [43] = experiment: Antiproliferative activity against human MCF7 cells assessed as inhibition of cell growth incubated for 48 hrs in absence of beta-glucuronidase by MTT assay; assay type: functional, cell-based; details: MCF7, 48 h
HeLa [44] = experiment: Antiproliferative activity against human HeLa cells assessed as inhibition of cell growth incubated for 48 hrs in presence of beta-glucuronidase by MTT assay; assay type: functional, cell-based
MDA-MB-231 [45] = experiment: Antiproliferative activity against human MDA-MB-231 cells assessed as inhibition of cell growth incubated for 48 hrs in presence of beta-glucuronidase by MTT assay; assay type: functional, cell-based; details: MDA-MB-231, 48 h
SK-OV-3 [46] = experiment: Antiproliferative activity against human SK-OV-3 cells assessed as inhibition of cell growth incubated for 48 hrs in presence of beta-glucuronidase by MTT assay; assay type: functional, cell-based; details: SK-OV-3, 48 h
MCF7 [47] = experiment: Antiproliferative activity against human MCF7 cells assessed as inhibition of cell growth incubated for 48 hrs in presence of beta-glucuronidase by MTT assay; assay type: functional, cell-based; details: MCF7, 48 h
[48] = Metabolic stability in rat liver microsomes assessed as half life at 10 mM measured up to 60 mins in presence of NADPH by LC-MS/MS analysis; assay type: ADME, Microsome
[49] = Metabolic stability in rat liver microsomes assessed as intrinsic clearance in microsomes at 10 mM measured up to 60 mins in presence of NADPH by LC-MS/MS analysis; assay type: ADME, Microsome; details: read-out: CLH
[50] = Metabolic stability in rat liver microsomes assessed as intrinsic clearance in liver at 10 mM measured up to 60 mins in presence of NADPH by LC-MS/MS analysis; assay type: ADME, Microsome; details: read-out: CLH
[51] = Metabolic stability in rat liver microsomes assessed as parent compound remaining at 10 mM measured up to 60 mins in presence of NADPH by LC-MS/MS analysis; assay type: ADME, Microsome; details: read-out: Stability
[52] = Aqueous solubility of compound in PBS at pH 7.4 at 1 mg incubated for 10 mins by HPLC analysis; assay type: physicochemical

Compound: COc1ccc([C@H]2[C@H](CO)C(=O)N2c2cc(OC)c(OC)c(OC)c2)cc1O (racemic)
IC50 (HeLa [4]): 5.9 nM | IC50 (MDA-MB-231 [5]): 11.9 nM | IC50 (MCF7 [6]): 14.8 nM | LD50 at 336 h [7]: 65 mg/kg | survival at 336 h [8]: 100% | survival at 336 h [9]: 100% | survival at 336 h [10]: 87.5% | survival at 336 h [11]: 37.5% | survival at 336 h [12]: 0% | Activity [13]: Non-Toxic | Activity [14]: Non-Toxic | Activity [15]: Non-Toxic | Activity (MDA-MB-231 [16]): Active | Activity [17]: 48.8 g/L | Activity [18]: 33.1 g/L | Activity [19]: 15.7 g/L | Activity [20]: 196 U/L | Activity [21]: 503 U/L | Activity [22]: 6.3 µmol/L | Activity [23]: 142 U/L | Activity [24]: < 2 U/L | Activity [25]: 0.05 10^9/L | Activity [26]: 99 10^9/L | Activity [27]: 23.5 pg | Activity [28]: 488 g/L | Activity [29]: 7.4% | Activity [30]: 18.2% | Activity [31]: 4.7% | Activity [32]: 66.7% | Activity [33]: 7.7% | Activity [34]: 18.5 | Activity [35]: Toxic | Activity [36]: Toxic | Activity [37]: Toxic

Compound: COc1cc(C(=O)c2c(N)oc3c(OCc4ccc(O[C@@H]5O[C@H](C(=O)O)[C@@H](O)[C@H](O)[C@H]5O)cc4)c(OC)ccc23)cc(OC)c1OC
Stability [1]: Stable | Stability [2]: Stable | Stability [3]: Unstable

Second part, the compound after the results:

Stability [1]: Stable | Stability [2]: Stable | Stability [3]: Unstable
Compound: COc1ccc([C@H]2[C@H](CO)C(=O)N2c2cc(OC)c(OC)c(OC)c2)cc1OCc1ccc(O[C@@H]2O[C@H](C(=O)O)[C@@H](O)[C@H](O)[C@H]2O)c([N+](=O)[O-])c1

IC50 (HeLa [4]): 6.7 nM | IC50 (MDA-MB-231 [5]): 1.1 nM | IC50 (MCF7 [6]): 12.5 nM | IC50 (SK-OV-3 [38]): 3.8 nM
Compound: COc1ccc([C@H]2[C@H](CF)C(=O)N2c2cc(OC)c(OC)c(OC)c2)cc1O

Stability [1]: Stable | Stability [2]: Stable | Stability [39]: Unstable | IC50 (HeLa [40]): > 50000 nM | IC50 (MDA-MB-231 [41]): > 50000 nM | IC50 (SK-OV-3 [42]): > 50000 nM | IC50 (MCF7 [43]): > 50000 nM | IC50 (HeLa [44]): 14.3 nM | IC50 (MDA-MB-231 [45]): 3.5 nM | IC50 (SK-OV-3 [46]): 22.6 nM | IC50 (MCF7 [47]): 15.5 nM | half-life [48]: > 2.42 h | microsomal CLint [49]: < 9.6 µL/min/mg | CLint scaled [50]: < 38 mL/min/kg | remaining at 1 h [51]: 84.6% | solubility at 10 min [52]: > 40 mg/mL
Compound: COc1ccc([C@H]2[C@H](CF)C(=O)N2c2cc(OC)c(OC)c(OC)c2)cc1OCc1ccc(O[C@@H]2O[C@H](C(=O)O)[C@@H](O)[C@H](O)[C@H]2O)cc1

From ChEMBL document CHEMBL5154856, “Targeting the tumor microenvironment by an enzyme-responsive prodrug of tubulin destabilizer for triple-negative breast cancer therapy with high safety” (Eur J Med Chem, 2022)
